The source of these data is patent US5393729A, “3-aryl-pyrone derivatives” (Bayer Aktiengesellschaft, priority 1992, dated 1995).

Read-outs that look alike come from different tables or passages of the source.

Assay [1] relates to larvae of the green rice cicada (Nephotettix cincticeps). Briefly: whole plant or invertebrate. It counts as in vivo. The settings on record: 144 h, read-out: destruction of cicadas. On the procedure: (§1) Solvent: 7 parts by weight of dimethylformamide
(§2) Emulsifier: 1 part by weight of alkylaryl polyglycol ether
(§3) To produce a suitable preparation of active compound, 1 part by weight of active compound is mixed with the stated amount of solvent and the stated amount of emulsifier, and the concentrate is diluted with water to the desired concentration.
Rice seedlings (Oryza satira) are treated by being dipped into the preparation of active compound of the desired concentration and are infested with larvae of the green rice cicada (Nephotettix cincticeps) while the seedlings are still moist.
After the specified period of time, the destruction in % is determined. 100% means that all the cicadas have been killed; 0% means that none of the cicadas have been killed.

Assay [2] relates to common spider mite or greenhouse red spider mite (Tetranychus urticae). Briefly: Tetranychus test (OP resistant). Format: in vivo. The note with it: 168 h, read-out: destruction of spider mites. On the procedure: Tetranychus test (OP resistant)
as §1, §2, §3
Bean plants (Phaseolus vulgaris) which are heavily infested with all development stages of the common spider mite or greenhouse red spider mite (Tetranychus urticae) are treated by being dipped into the preparation of active compound of the desired concentration.
After the specified period of time, the destruction in % is determined. 100% means that all the spider mites have been killed; 0% means that none of the spider mites have been killed.

Assay [3] relates to Trichinella spiralis. Briefly: Trichinella spiralis in vitro. The settings on record: 120 h, 5 days at 19° C., read-out: destruction (very good action). How it is done:
Trichinella spiralis in vitro
Trichina larvae are isolated from the muscles of mice and washed with 0.9% NaCl supplemented with 20 μg/ml sisomycin and 2 μg/ml of clotrimazole. The actual incubation for approximately 20 trichinas per measurement was effected in 2 ml of a solution consisting of 10 g Bacto Casitone, 5 g of yeast (yeast extract), 2.5 g of glucose, 0.4 g of KH2 PO4, 0.4 g of K2 HPO4 per 500 ml, pH 7.2, containing 10 μg/ml of sisomycin and […] of clotrimazole. 10 mg of the substance to be tested are dissolved in 0.5 ml of DMSO, and such an amount is added to the incubation medium that the end concentrations are 100, 10 and 1 μg/ml. After incubation for 5 days at 19° C., the test is evaluated. The following key is used for the evaluation: 0=no action, the number of live larvae and worms is lower than in the case of the control; 2=good action, dead trichinas can be found; 3=very good action, all trichinas are dead.

The test system of assay [4] is Echinochloa. Briefly: Pre-emergence test, Echinochloa. The settings on record: 504 h, after three weeks, 0%=no action, 100%=total destruction, read-out: % Activity (damage to the plants). It counts as in vivo. On the procedure:
(§4) Solvent: 5 parts by weight of acetone
as §2
(§5) To produce a suitable preparation of active compound, 1 part by weight of active compound is mixed with the stated amount of solvent, the stated amount of emulsifier is added and the concentrate is diluted with water to the desired concentration.
(§6) Seeds of the test plants are sown in normal soil and, after 24 hours, watered with the preparation of the active compound. It is expedient to keep constant the amount of water per unit area. The concentration of the active compound in the preparation is of no importance, only the amount of active compound applied per unit area being decisive. After three weeks, the degree of damage to the plants is rated in % damage in comparison to the development of the untreated control. The figures denote:
(§7) 0%=no action (like untreated control)
(§8) In this test, the following results were obtained at an exemplary application rate of 500 g/ha, the active compounds being tolerated well to very well by soya beans: […]

Assay [5] relates to Panicum. Briefly: Pre-emergence test, Panicum. It counts as in vivo. The note with it: 504 h, after three weeks, 0%=no action, 100%=total destruction, read-out: % Activity (damage to the plants). How it is done: as §4, §2, §5, §6, §7, §8
The subject of assay [6] is Setaria. Briefly: Pre-emergence test, Setaria. It counts as in vivo. The settings on record: 504 h, after three weeks, 0%=no action, 100%=total destruction, read-out: % Activity (damage to the plants). On the procedure:
as §4, §2, §5, §6, §7, §8

Assay [7] relates to Digitaria. Briefly: Pre-emergence test, Digitaria. Format: in vivo. The settings on record: 504 h, after three weeks, 0%=no action, 100%=total destruction, read-out: % Activity (damage to the plants). On the procedure: as §4, §2, §5, §6, §7, §8
The subject of assay [8] is mustard beetle larvae (Phaedon cochleariae). Briefly: Phaedon larvae test. It counts as in vivo. The note with it: 168 h, after 7 days, active compound concentration 0.1%, cabbage leaves dipped, read-out: destruction of beetle larvae. How it is done:
as §1, §2, §3
After the specified periods of time, the destruction in % is determined. 100% means that all the beetle larvae have been killed; 0% means that none of the beetle larvae have been killed.

Assay [9] concerns caterpillars of the diamond-back moth (Plutella maculipennis). Briefly: whole plant or invertebrate. Format: in vivo. The note with it: in Brassica oleracea, 168 h, read-out: destruction of caterpillars. How it is done: as §1, §2, §3
Cabbage leaves (Brassica oleracea) are treated by being dipped into the preparation of active compound of the desired concentration and are infested with caterpillars of the diamond-back moth (Plutella maculipennis) while the leaves are still moist.
After the specified periods of time, the destruction in % is determined. 100% means that all the caterpillars have been killed; 0% means that none of the caterpillars have been killed.

Setting [10] is: after 7 days, active compound concentration 0.01%, OP resistant, bean plants dipped.

Regarding `CCOC(=O)Oc1cc(C(C)(C)C)oc(=O)c1-c1c(C)cc(C)cc1C` [Example 3, 4-ethoxycarbonyloxy-6-tert.-butyl-3-(2,4,6-trimethylphenyl)pyrone], the mortality at 0.1 % in assay [1] stood at 100%. Moreover, the mortality at 0.01 % in [2] turned out to be 100%.
Take `Cc1cc(C)c(-c2c(O)c(C#N)c(-c3ccccc3Cl)oc2=O)c(C)c1` [Example 13]: the killing at 100 ppm in assay [3] came to 100%.
Same read-out and setting: as for `CCOC(=O)c1c(-c2ccccc2F)oc(=O)c(-c2c(C)cc(C)cc2C)c1O` [Example 14], the figure is 100%; as for `CCOC(=O)c1c(-c2ccc([N+](=O)[O-])cc2)oc(=O)c(-c2c(C)cc(C)cc2C)c1O` [Example 15], 100%; as for `Cc1cc(C)c(-c2c(O)c(C(=O)N3CCOCC3)c(C)oc2=O)c(C)c1` [Example 18], 100%.
Take `Cc1cc(C)c(-c2c(O)c(C(=O)c3ccccc3)c(C)oc2=O)c(C)c1` [Example 26]: the killing at 100 ppm in [3] came to 100%.
Consider `Cc1cc(C)c(-c2c(O)cc(C(C)(C)C)oc2=O)c(C)c1` [Example 31], for which the activity at 500 g/ha in assay [4] is 70 to 100%; in assay [5], 95 to 100%; in [6] it was 70 to 100%; in [7], 90 to 100%. Moreover, the mortality at 0.1 % in [1] came out at 100%. The mortality at 0.01 % in assay [2] (setting [10]) came out at 100%.
`Cc1cc(C)c(-c2c(O)c(C(C)C)c(C)oc2=O)c(C)c1` [Example 33]: the activity at 500 g/ha is 70 to 100% in assay [4], 95 to 100% in assay [5], 70 to 100% in assay [6] and 90 to 100% in assay [7].
`Cc1cc(C)c(-c2c(O)cc(C)oc2=O)c(C)c1` [Example 34]: the activity at 500 g/ha in assay [4] was in the range of 70 to 100%; in assay [5] it was 95 to 100%; in assay [6] it was 70 to 100%; in assay [7] it was 90 to 100%. Further, the mortality at 0.1 % in assay [1] came out at 100%.
Turning to `CCc1c(C)oc(=O)c(-c2c(C)cc(C)cc2C)c1O` [Example 35], the activity at 500 g/ha was 95 to 100% in assay [5], 70 to 100% in assay [6] and 90 to 100% in assay [7]. Moreover, the mortality at 0.1 % in assay [1] was 100%.
As to `CCCc1c(CC)oc(=O)c(-c2c(C)cc(C)cc2C)c1O` [Example 37], the activity at 500 g/ha lay in the range of 70 to 100% in assay [4], 95 to 100% in assay [5] and 70 to 100% in assay [6]. In addition, in [1], the mortality at 0.1 % worked out at 100%. For the same molecule, in assay [3], the killing at 100 ppm worked out at 100%.
In the case of `Cc1cc(C)c(-c2c(O)cc(-c3ccccc3Cl)oc2=O)c(C)c1` [Example 47], in [8], the mortality at 0.1 % turned out to be 100%.
Take `Cc1cc(C)c(-c2c(O)cc(-c3ccccc3F)oc2=O)c(C)c1` [Example 51]: the mortality at 0.1 % in assay [1] turned out to be 100%.
Regarding `Cc1cc(C)c(-c2c(O)cc(-c3ccc(F)cc3)oc2=O)c(C)c1` [Example 52], the activity at 500 g/ha in assay [4] lay in the range of 70 to 100%; in assay [5], 95 to 100%; in [6] it was 70 to 100%; in assay [7], 90 to 100%. Moreover, the mortality at 0.1 % in [9] and in [1] was 100% in each case.
For `Cc1cc(C)c(-c2c(O)cc(-c3ccc(Cl)cc3)oc2=O)c(C)c1` [Example 53], the activity at 500 g/ha in assay [4] lay within 70 to 100%; in assay [5] it was 95 to 100%; in [6] it was 70 to 100%; in assay [7] it was 90 to 100%. Further, in [9], the mortality at 0.1 % is 100%.
Take `Cc1cc(C)c(-c2c(O)cc(-c3ccco3)oc2=O)c(C)c1` [Example 56]: the activity at 500 g/ha in assay [4] lay within 70 to 100%; in assay [5], 95 to 100%; in [6], 70 to 100%. The mortality at 0.1 % in assay [1] was 100%. Also, in assay [3], the killing at 100 ppm worked out at 100%.
`Cc1cc(C)c(-c2c(O)cc(-c3cccs3)oc2=O)c(C)c1` [Example 58]: the mortality at 0.1 % in [1] came to 100%.
Turning to `Cc1cc(C)c(-c2c(O)cc(-c3cc(Cl)c(Cl)s3)oc2=O)c(C)c1` [Example 60], the results for the activity at 500 g/ha in assay [5], in [6] and in assay [7] were 95 to 100%, 70 to 100% and 90 to 100%, respectively.
In the case of `Cc1cc(C)c(-c2c(O)cc(-c3ccc(Cl)s3)oc2=O)c(C)c1` [Example 61], the mortality at 0.1 % in [9] was determined as 100%.
`Cc1cc(C)c(-c2c(O)cc(-c3cc(C)sc3C)oc2=O)c(C)c1` [Example 62]: the activity at 500 g/ha lay in the range of 95 to 100% in assay [5] and 90 to 100% in assay [7]. In addition, the mortality at 0.1 % in [1] was 100%.
Consider `Cc1cc(C)c(-c2c(O)cc(-c3cccnc3)oc2=O)c(C)c1` [Example 63], for which the activity at 500 g/ha in assay [4] was in the range of 70 to 100%; in assay [5] it was 95 to 100%; in assay [6], 70 to 100%; in assay [7] it was 90 to 100%.
Turning to `Cc1cc(C)c(-c2c(O)cc(-c3c(C)cc(C)nc3C)oc2=O)c(C)c1` [Example 65], the mortality at 0.1 % in assay [1] and in [8] was 100% in each case.
In the case of `Cc1cc(C)c(-c2c(O)c3c(oc2=O)CCCC3)c(C)c1` [Example 68], the activity at 500 g/ha in assay [4] was 70 to 100%; in assay [5] it was 95 to 100%; in [6] it was 70 to 100%; in [7], 90 to 100%. Further, the mortality at 0.1 % in assay [1] is 100%.
On to `Cc1cc(C)c(-c2c(O)c3c(oc2=O)CCC3)c(C)c1` [Example 69], for which the activity at 500 g/ha in assay [4] was in the range of 70 to 100%; in assay [5], 95 to 100%; in assay [6] it was 70 to 100%; in assay [7], 90 to 100%. In addition, the mortality at 0.1 % in assay [1] stood at 100%.
Take `Cc1cc(C)c(-c2c(O)c3c(oc2=O)CCOC3)c(C)c1` [Example 71]: the mortality at 0.1 % in assay [1] came out at 100%.
Consider `CC(=O)Oc1c(C)c(C)oc(=O)c1-c1c(C)cc(C)cc1C` [Example 81], for which the activity at 500 g/ha fell in the range of 70 to 100% in assay [4], 95 to 100% in [5], 70 to 100% in assay [6] and 90 to 100% in assay [7]. Moreover, in assay [9], the mortality at 0.1 % was 100%.
On to `CC(=O)Oc1cc(C(C)(C)C)oc(=O)c1-c1c(C)cc(C)cc1C` [Example 84], for which the activity at 500 g/ha lay in the range of 70 to 100% in assay [4], 95 to 100% in assay [5], 70 to 100% in [6] and 90 to 100% in assay [7]. The mortality at 0.1 % in [1] stood at 100%. In addition, in [2] (setting [10]), the mortality at 0.01 % is 100%.
With `Cc1cc(C)c(-c2c(OC(=O)C(C)C)cc(C(C)(C)C)oc2=O)c(C)c1` [Example 85], the mortality at 0.1 % in assay [1] amounted to 100%. In [2] (setting [10]), the mortality at 0.01 % worked out at 100%.
Turning to `CCOC(=O)Oc1c(C)c(C)oc(=O)c1-c1c(C)cc(C)cc1C` [Example 88], the mortality at 0.1 % in assay [9] came out at 100%. For the same molecule, the activity at 500 g/ha in assay [5] lay within 95 to 100%; in [6], 70 to 100%; in assay [7], 90 to 100%. Besides, the mortality at 0.01 % in assay [2] (setting [10]) amounted to 100%.
